Data from patent publication US11135231B2, “Methods and compositions for prevention and treatment of Apicomplexan infections” (Tufts Medical Center, Inc., priority 2016, dated 2021).
Like-named read-outs stand apart in the source and are kept apart here.

Tests used:
P. falciparum strains [1] = system: P. falciparum strains; set-up: key: R = Clinically Resistant; S + Sensitive; conditions: cited from earlier work
[2] = system: Plasmodium falciparum 3D7; test: P. falciparum SYBR green flow cytometry assay; type: cell-based; conditions: 72 hours, read-out: EC50, proliferation of Plasmodium falciparum 3D7
Protocol: Plasmodium falciparum: Parasites were cultured in 96-well plates at 0.5% initial parasitemia. Parasites were cultured for 72 hours in the presence of dilutions of tartrolon D2, dihydroartemisinin (DHA, a drug for treating malaria as a positive control) or DMSO after which parasites were stained with SYBR green fluorescence and enumerated by flow cytometry. The assay was conducted once and all samples were run in triplicate. Data was analyzed with GraphPad Prism as described for T. gondii.

P. falciparum strains [3] = test: 3H hypoxanthine incorporation assay of P. falciparum strains in human red blood cells; type: cell-based, Plasmodium falciparum
Protocol: The potency of the compounds of the invention against multi-drug resistant P. falciparum strains was tested. Parasites were cultured in 96-well plates in human red blood cells at 0.5% initial parasitemia for 72 hours in the presence of dilutions of tartrolon D/E (specifically, D2 as the starting material in FIG. 11A), purified tartrolon E (FIG. 11C), dihydroartemisinin (DHA, as a positive control in FIG. 11B), or DMSO (as a negative control). Parasites proliferation was then determined by ^3H hypoxanthine incorporation.
Specifically, parasitized red blood cells (pRBCs) were grown in 0.5% Albumax I (Thermo Fisher Scientific). Assays were set up in 96-well plates at 0.5% initial parasitemia and 0.5% hematocrit. Parasites were exposed to various concentrations of Tartrolon D or E and dihydroartemisinin (DHA) for 48 hours and then pulsed with 0.5 microcuries of tritium-labeled hypoxanthine Moravek (MT-700) for another 24 hours. At the end of 72 hours, assay plates were processed through an Inotech cell harvester and collected on Inotech glass fiber filters. Filters were transferred to Omniplate-96 cassettes (Perkin Elmer) and dried overnight at room temperature. About […] of Microscint-O scintillation cocktail (Perkin Elmer) was added to each well. Each well was counted for 2 minutes on a Packard Topcount scintillation counter. The uptake of radiolabeled hypoxanthine by compound-treated pRBCs was compared relative to uptake by DMSO solvent-treated controls. […] The starting material used as the active reagent in FIG. 11C was tartrolon E, purified as follows: extract from the bacterial pellet of the Teredinibacter turnerae T7901 was purified by reversed phase HPLC using diode array detection. A C18 column (Phenomenex CHO-7878, 100×10 mm) was employed with an isocratic mobile phase (85% acetontrile in water, 3.5 mL/min) to yield tartrolon E (4.7 mg, retention time 8 min).

Toxoplasma gondii ME49 = test: Bright-Glo luciferase assay of parasite proliferation in HFF cells; type: cell-based
Protocol: Human foreskin fibroblast (HFF) cells were established in 96-well plates, and then infected with ME49 parasites engineered to express green fluorescent protein and firefly luciferase (2.5 to 5×10^5/well). Eight hours after infection, dilutions of Tartrolon D1 isolated as in Example 3, Tartrolon D2 isolated as in Example 4, or vehicle (DMSO) at equivalent concentrations were added to infected cells and the plates incubated for 24 hours (37° C., 5% CO2). Proliferation of the parasites was then measured using Bright-Glo luciferase assay system (available from Promega). Samples were run in triplicate and three independent biological replicates were conducted. The log 10 [Tartrolon D] versus percent inhibition of parasite proliferation was analyzed using the four parameter variable slope analysis in Graphpad Prism.

Babesia bovis = test: SYBR green-based growth suppression assay in bovine red blood cells; type: cell-based; conditions: for EC50: SYBR green fluorescence, read-out: EC50 against B. bovis
Protocol: Purified tartrolon D/E (with starting materials being either D1 or D2) was tested against another apicomplexan pathogen, Babesia bovis, which proliferates in bovine red blood cells. Growth suppression of B. bovis was quantified using a modified SybrGreen-based assay (Molecular Probes, Life Sciences Technology). SYBR green is an asymmetrical cyanine dye that is used as a nucleic acid stain. In this assay, parasite replication in red blood cells is measured directly by the incorporation of SYBR green into parasite DNA. Tartrolon D/E concentrations ranging from 0.001 to 10,000 nM were tested on infected cells and DMSO (vehicle) was run in parallel as a negative control.

C. parvum [4] = test: Neonatal mouse model of C. parvum infection, histological scoring; type: in vivo, Cryptosporidium parvum; conditions: neonatal mice, 2 mg/kg/dose b.i.d. for 4 days, histological score
Protocol: To determine if tartrolon D/E would be effective in vivo, the purified compound(s) of the invention was tested in a neonatal mouse model of C. parvum infection (Schaefer D A et al. (2000) Infect Immun 68(5):2608-261). Eight-day old neonatal mice were infected with C. parvum oocysts (50 times the ID50) and treated with purified tartrolon D/E (specifically, D1) or vehicle as a starting material for 4 days at 2 mg/kg/dose (b.i.d). At the end of the study period, mice were sacrificed and histological sections of jejunum, ileum, colon and caecum were examined. Infection in each section was scored by an observer blinded as to the sample identity.

Theileria equi = test: T. equi growth in erythrocytes, hydroethidine flow cytometry; type: cell-based; conditions: Erythrocyte, 72 hours, averaged from three independent experiments, read-out: EC50, proliferation of Theileria equi
Protocol: Theileria equi: The effect of tartrolon D2 on T. equi growth in vitro was quantified using an assay that has been previously described by Hines, S. A. et al. (Parasit Vectors 8, 33 (2015)). Briefly, wells containing an erythrocyte concentration of 9% and a starting percentage parasitized erythrocyte (ppe) of 0.3% were established in 96-well plates. Parasites were cultured in the presence of tartrolon D2 or DMSO for 72 hours with a change of media and compound every 24 hours. After 72 hours, the parasites were stained with hydroethidine and enumerated by flow cytometry (FACSCaliber). Samples were run in triplicate and three independent experiments conducted. The data was analyzed and the EC50 values calculated as described above for T. gondii ME49.

Sarcocystis neurona = test: S. neurona luciferase proliferation assay in bovine turbinate cells; type: cell-based; conditions: BT cells, 96 hours
Protocol: Sarcocystis neurona: Bovine turbinate cells (BT cells, ATCC CRL-1390, American Type Culture Collection, Manassas, Va.) were seeded into 96-well plates and infected with S. neurona merozoites that had been engineered to express green fluorescent protein and firefly luciferase (2×10^4/well). Dilutions of tartrolon D2 or DMSO were added to the infected cells and the plates incubated for 96 hours (37° C., 5% CO2). After 96 hours, parasite proliferation was quantified and the data analyzed as described with T. gondii ME49. The assay was conducted once and all samples were run in triplicate.

C. parvum [5] = test: Neonatal mouse C. parvum infection, quantitative PCR of intestinal parasites; type: in vivo, Cryptosporidium parvum; conditions: neonatal mice, qPCR
Protocol: To confirm the in vivo activity against Cryptosporidium parvum, neonatal mice were infected with C. parvum (5×10^4 oocysts per mouse), and 24 hours after infection, the mice were dosed twice daily for 4 days with either 4 or 40 mg/kg of tartrolon D/E (specifically, D2) in starting concentrations. Day 5 post-infection, the mice were sacrificed, the intestines collected and total DNA extracted. Intestinal parasite numbers were quantified by quantitative PCR (qPCR) of the C. parvum HSP70 gene and extrapolation to a standard curve standard curve of known oocyst numbers (see Shahiduzzaman, et al., Vet Parasitol 167, 43-9 (2010)). At both the high and the low dose of Tartrolon D/E, nearly 100% of the parasites were eliminated from the intestine as measured by quantitative PCR.

Plasmodium berghei = test: Plasmodium berghei-luciferase infection in mice, IVIS imaging; type: in vivo; conditions: 8 mg/kg intraperitoneal once per day for 5 days, imaged seven days after infection
Protocol: Mice were infected with Plasmodium berghei expressing luciferase. 48 hours post infection mice were treated with tartrolon D/E (specifically, D2) initially solubilized in 2% methylcellulose and 0.5% Tween80 by intraperitoneal injection for 5 days, once per day. Control mice were treated with vehicle alone. Seven days after infection, mice were given luciferase substrate (150 mg/kg D-luciferin Potassium salt in PBS (Goldbio)) and imaged in an IVIS Lumina II to quantify level of infection.

[6] = cell line 3D7 (Netherlands, clone of NF54)
[7] = cell line Goan Isolate (Goa, India)

| Compound | Drug resistance phenotype (P. falciparum strains [1]; [6]) | Drug resistance phenotype (P. falciparum strains [1]; cell line 7G8 (Brazil)) | Drug resistance phenotype (P. falciparum strains [1]; cell line D6 (Sierra Leone)) | Drug resistance phenotype (P. falciparum strains [1]; cell line Dd2 (SE Asia)) | Drug resistance phenotype (P. falciparum strains [1]; [7]) | Drug resistance phenotype (P. falciparum strains [1]; cell line HB3 (Honduras)) | Drug resistance phenotype (P. falciparum strains [1]; cell line NF54 (Netherlands)) | Drug resistance phenotype (P. falciparum strains [1]; cell line V1/S (Vietnam)) | other results |
| --- | --- | --- | --- | --- | --- | --- | --- | --- | --- |
| CC1(C)N=C(N)N=C(N)N1c1ccc(Cl)cc1 [Cycloguanil] | S | R | S | R | R | S | S | R | Drug resistance phenotype (P. falciparum strains [1]; cell line TM90C2A (Thailand)): R |
| C[C@H]1[C@@H](O)O[C@@H]2O[C@@]3(C)CC[C@H]4[C@H](C)CC[C@@H]1[C@@]24OO3 [Dihydroartemisinin, dihydroartemisinin] | – | – | – | – | – | – | – | – | EC50 [2]: ~0.02 nM; EC50 (P. falciparum strains [3]; Plasmodium falciparum, 3D7, Erythrocyte, parasite line 3D7, read-out: EC50): 0.2 nM; EC50 (P. falciparum strains [3]; Plasmodium falciparum, DD2, Erythrocyte, parasite line Dd2, read-out: EC50): 0.14 nM; EC50 (P. falciparum strains [3]; Plasmodium falciparum, Erythrocyte, parasite line 7G8, read-out: EC50): 0.095 nM; EC50 (P. falciparum strains [3]; Plasmodium falciparum, Erythrocyte, parasite line 2012 Indian Isolate (Goa), read-out: EC50): 0.21 nM; EC50 (P. falciparum strains [3]; Plasmodium falciparum, Erythrocyte, parasite line D6, read-out: EC50): 0.17 nM; EC50 (P. falciparum strains [3]; Plasmodium falciparum, Erythrocyte, parasite line V1S, read-out: EC50): 0.084 nM; EC50 (P. falciparum strains [3]; Plasmodium falciparum, HB3, Erythrocyte, parasite line HB3, read-out: EC50): 0.16 nM; EC50 (P. falciparum strains [3]; Plasmodium falciparum, NF54, Erythrocyte, parasite line NF54, read-out: EC50): 0.15 nM; EC50 (P. falciparum strains [3]; Plasmodium falciparum, TM90C2A, Erythrocyte, parasite line TM90C2A, read-out: EC50): 0.091 nM; EC50 (P. falciparum strains [3]; parasite line 3D7, listed as Dihydroartemisinin (DHA), read-out: EC50): 0.11 nM |
| OC(c1cc(C(F)(F)F)nc2c(C(F)(F)F)cccc12)C1CCCCN1 (stereo not shown) [Mefloquine] | S | S | S | R | S | S | S | S | Drug resistance phenotype (P. falciparum strains [1]; cell line TM90C2A (Thailand)): R |
| C=C[C@H]1C[N@@]2CC[C@H]1C[C@H]2[C@H](O)c1ccnc2ccc(OC)cc12 [Quinine] | S | R | S | R | – | S | S | R | – |
| COc1ncnc(NS(=O)(=O)c2ccc(N)cc2)c1OC [Sulfodoxine] | R | – | S | R | R | S | R | – | – |
| C[C@@H]1C(=O)C[C@@H](O)CC/C=C/C=C\CC[C@H](C)OC(=O)C(O)[C@]2(O)O[C@@H](CC[C@H]2C)[C@H](C)C(=O)C[C@@H](O)CC/C=C/C=C\CC[C@H](C)OC(=O)C(O)[C@]2(O)O[C@H]1CC[C@H]2C (stereo partly shown) [Tartrolon D1, tartrolon D] | – | – | – | – | – | – | – | – | EC50 (Toxoplasma gondii ME49; Toxoplasma gondii, HFF, read-out: EC50 against T. gondii ME49, added 8 h after infection, 24 hours, 3 independent experiments): 3.4 nM; concentration at which parasites did not incorporate any more fluorescence than uninfected red blood cells (Babesia bovis): more than 20 nM; EC50 (Babesia bovis; Babesia bovis, Erythrocyte): 11.2 nM; inhibition of infection (C. parvum [4]): about 50% |
| C[C@@H]1C(=O)C[C@@H](O)CC/C=C/C=C\CC[C@H](C)OC(=O)C(O)[C@]2(O)O[C@@H](CC[C@H]2C)[C@H](C)C(=O)C[C@@H](O)CC/C=C/C=C\CC[C@H](C)OC(=O)C(O)[C@]2(O)O[C@H]1CC[C@H]2C (stereo partly shown) [Tartrolon D2, tartrolon D] | – | – | – | – | – | – | – | – | EC50 (Toxoplasma gondii ME49; read-out: EC50 against T. gondii ME49, added 8 h after infection, 24 hours, 3 independent experiments): 2.7 nM; EC50 (Babesia bovis; listed as tartrolon D2/E): 16 nM; EC50 (Theileria equi): ~0.35 nM; EC50 (Sarcocystis neurona): ~13.2 nM; EC50 [2]: ~0.105 nM; parasites eliminated from the intestine (C. parvum [5]; high dose 40 mg/kg twice daily for 4 days from 24 h after infection): ~100%; parasites eliminated from the intestine (C. parvum [5]; low dose 4 mg/kg twice daily for 4 days from 24 h after infection): ~100%; P. berghei infection (luminescence) (Plasmodium berghei): reduced P. berghei infection |
| C[C@@H]1CCC2CC(=O)C[C@@H](O)CC/C=C/C=C\CC[C@H](C)OC(=O)[C@@H]3O[B-]45O[C@@H](C(=O)O[C@@H](C)CC/C=C\C=C\CC[C@H](O)CC(=O)CC6CC[C@@H](C)[C@]3(O6)O4)[C@@]1(O2)O5 [Tartrolon E, tartrolon E] | – | – | – | – | – | – | – | – | EC50 (P. falciparum strains [3]; strain Dd2, purified tartrolon E as starting material (FIG. 11C), read-out: EC50 against Dd2): ~0.16 nM |
